This is an account of results in paper PMC11056381, “Characterization and evaluation of cytotoxic and antimicrobial activities of cyclotides from Viola japonica” (Scientific Reports, 2024).

Experiment [1] relates to Acinetobacter baumannii (ATCC19606). Nature of the experiment: microbe, parasite or virus in culture. The note with it: Acinetobacter baumannii ATCC19606; 10^6 CFU/ml, 96-well plate, overnight 37 °C, visual clarity; performed at least three times. An excerpt: (§1) Viba 11, originally discovered in Viola baoshanensis[39] and found in other plants such as Viola tricolor[40], Viola betonicifolia, and Viola philippica, lacks biological activity studies. […] All purified cyclotides underwent antibacterial testing against Gram-positive bacterium Staphylococcus aureus (CMCC(B)26003-2-10) and Bacillus subtilis (CMCC(B)63501), Gram-negative bacteria, including Acinetobacter baumannii (ATCC19606), Escherichia coli (CMCC(B)44102-2-6), and Salmonella paratyphi (CMCC(B)50094-2-9).
(§2) Bacterial fluids are cultured overnight at 37 °C. The next day, the bacterial liquids are diluted to a concentration of 10^6 CFU/ml. Prepare different concentrations of cyclotide drugs and kanamycin sulfate in advance, and sequentially add the drugs and bacterial liquid to the 96-well plate. Negative controls consisted of sterile water and bacterial liquid. The plate is cultured overnight at 37 °C and observe whether the solution remains clear to see the growth of the bacterial suspension. Each test was performed three times at least.

Experiment [2] relates to Bacillus subtilis (CMCC(B)63501). Description: microbe, parasite or virus in culture. The note with it: 10^6 CFU/ml, 96-well plate, overnight 37 °C, visual clarity, performed at least three times.
Source text: as §1, §2

Experiment [3] relates to Escherichia coli (CMCC(B)44102-2-6). Description: microbe, parasite or virus in culture. The note with it: 10^6 CFU/ml, 96-well plate, overnight 37 °C, visual clarity, performed at least three times.
Source text: as §1, §2

The test system of experiment [4] is Salmonella paratyphi (CMCC(B)50094-2-9). Nature of the experiment: MIC, broth dilution in 96-well plate. The class given is cell-based. The note with it: 10^6 CFU/ml, overnight 37 °C, visual clarity, performed at least three times.
Source text: (§3) Cycloviolacin O2, known for its antimicrobial, hemolytic, and insecticidal activities, has been more extensively investigated[4],[20],[36]–[38]. Viba 11, originally discovered in Viola baoshanensis[39] and found in other plants such as Viola tricolor[40], Viola betonicifolia, and Viola philippica, lacks biological activity studies. These two cyclotides and vija 10 are high in content and easy to purify, and cycloviolacin O2 can also be used as a positive control to conduct activity study. In addition, few vija12 and 31 were extracted for antibacterial experiments. All purified cyclotides underwent antibacterial testing against Gram-positive bacterium Staphylococcus aureus (CMCC(B)26003-2-10) and Bacillus subtilis (CMCC(B)63501), Gram-negative bacteria, including Acinetobacter baumannii (ATCC19606), Escherichia coli (CMCC(B)44102-2-6), and Salmonella paratyphi (CMCC(B)50094-2-9). […] In addition, the MICs of viba 11, cycloviolacin O2 and vija 10 against B. subtilis were respectively 5.4 μM, 2.1 μM and 14.3 μM (Table 1). […] Therefore, it is hypothesized that the lower antimicrobial activity of vija 10 may be attributed to the presence of only one Lys residue in loop 5.
as §2
A general note: In broth dilution the organism is exposed to a series of concentrations in liquid medium.

Experiment [5] relates to Staphylococcus aureus (CMCC(B)26003-2-10). Nature of the experiment: MIC, broth dilution in 96-well plate. Type of experiment: cell-based. The note with it: 10^6 CFU/ml, overnight 37 °C, visual clarity, performed at least three times.
Source text: as §3, §2

For experiment [6], the system named is Acinetobacter baumannii. Nature of the experiment: DAPI/PI staining, laser scanning confocal microscopy (membrane integrity). The class given is cell-based. The note with it: A. baumannii 10^8 CFU/mL, 37 °C, 1-2 h, DAPI and PI staining. An excerpt:
Many naturally occurring antimicrobial peptides (AMPs) are cationic. Cationic AMPs (CAMPs) exert bactericidal activity by mechanisms featuring cell membrane disruption. Cyclotides are likely to kill germ by disrupting their membranes. Laser scanning confocal microscopy can be used to study the ability of cyclotides to destroy bacterial membrane. 4′, 6-diaminyl-2-phenylindole (DAPI) is a blue fluorescent dye that can penetrate membranes and stain both living and dead strains, while propyl iodide (PI) stains only strains with damaged membranes, glowing red[46],[47]. In this study, the bracelet cyclotide family members viba 11 and vija 10 interacted with A. baumannii and B. subtilis in their logarithmic phase at 37 °C for 1–2 h. After the addition of DAPI and PI fluorescent dyes, the samples were incubated in a dark room at room temperature for 15 min for staining. The stained samples were then centrifuged to concentrate, resuspended, and applied to a slide for observation using a confocal laser scanning microscope (FLUOVIEW FV3000, Olympus). […] With increasing concentration, the blue and red fluorescence gradually overlapped. […] However, the magnification is not sufficient to detect further details of membrane disruption. Therefore, further exploration can be conducted using methods such as scanning electron microscopy (SEM) to study the antibacterial mechanism in depth.
Figure 5 Study on the antimicrobial mechanism of cyclotides. (A) Incubation of Acinetobacter baumannii with sterile water, 1 MIC and 4 MIC of viba 11. (B) Incubation of Bacillus subtilis with sterile water, 1 MIC and 4 MIC of vija 10. All samples were stained with DAPI and PI. The negative control group PI is not stained and the membrane is intact, while the membrane treated with cyclotides was stained and the membrane are destroyed. Scale bar: 20 μm. Magnification: 600×.
Take 50 μL of A. baumannii and B. subtilis (10^8 CFU/mL), and add 50 μL of sterile water, different concentrations of cyclotides viba 11 and vija 10 to achieve final concentrations of 1 MIC and 4 MIC respectively. Incubate at 37 °C for 1–2 h. Subsequently, add 4,6-diamino-2-phenylindole (DAPI) and propidium iodide (PI) dyes at 20 μg/mL each, and incubate in the dark for 15 min. Centrifuge at 5000 rpm for 3 min to concentrate, discard the majority of the supernatant, and resuspend the bacteria in the remaining small volume of liquid. Mix well and take 10 μL of the stained sample onto a glass slide, gently place a cover slip on top with forceps, avoiding the formation of bubbles during the pressing process. After sealing the cover slip, check with a laser confocal microscope, and the observation was conducted using an objective lens with the maximum magnification of 60 × . […]

Experiment [7] concerns 4T1 (mouse breast cancer cells). Nature of the experiment: MTT cytotoxicity assay. The class given is cell-based. The note with it: 4T1 cells, 48 h incubation, mean ± SD of at least three repeats. The protocol:
(§4) Five types of cells, namely A549 (human non-small cell lung cancer cells), T24 (human bladder cancer cells), 4T1 (mouse breast cancer cells), 7402 (human hepatocellular carcinoma cells), and THLE-3 (human hepatocytes cells), are selected for evaluating the cytotoxicity of viba 11, cycloviolacin O2, and vija 10 using the MTT (3-(4,5-dimethylthiazol-2-yl)-2,5-diphenyltetrazolium bromide) reagent.
(§5) To determine cell toxicity using MTT assay, cells are seeded in a 96-well plate and cultured for 24 h. After that, different concentrations of cyclotides are added to the cells and incubated for 48 h. MTT is then added to react with the cells, and after 4 h, the reaction is terminated by discarding the supernatant and adding dimethyl sulfoxide for resuspension. The absorbance at 570 nm is measured after 10 min of shaking at room temperature. Each test was performed three times at least. The data were analyzed using GraphPad Prism 8. During this process, the drug concentrations were transformed into logarithmic form with a base of 10 and plotted on the x-axis. Cell viability (%) = [A (cyclotides) − A (blank)]/[A (control) − A (blank)] × 100, which was represented on the y-axis. Using this method, we determined the IC50 value for each experiment, with each experiment repeated at least three times and the mean value calculated. The error was represented by the standard deviation of the IC50 obtained from three repetitions.

Experiment [8] concerns 7402 (human hepatocellular carcinoma cells). Description: MTT cytotoxicity assay. The class given is cell-based. The note with it: 7402 cells, 48 h incubation, mean ± SD of at least three repeats. The protocol:
as §4, §5
Background: Tetrazolium dyes change colour on reduction, which living cells bring about.

The test system of experiment [9] is A549 (human non-small cell lung cancer cells). Nature of the experiment: MTT cytotoxicity assay. Type of experiment: cell-based. The settings on record: 48 h incubation, mean ± SD of at least three repeats. On the procedure:
as §4, §5

Experiment [10] concerns T24 (human bladder cancer cells). Nature of the experiment: MTT cytotoxicity assay. The settings on record: 48 h incubation, mean ± SD of at least three repeats. The class given is cell-based. On the procedure:
as §4, §5

Experiment [11] relates to THLE-3 (human hepatocytes cells). Nature of the experiment: MTT cytotoxicity assay. Type of experiment: cell-based. The note with it: THLE-3 cells, 48 h incubation, mean ± SD of at least three repeats. On the procedure:
as §4, §5

≈ marks a conversion by molar mass, not a printed value. Residues, ends and D or L forms follow the SMILES beside them. Some results are limits rather than exact numbers.

What is called IC50 is the midpoint of a concentration-inhibition curve. Higher therefore signals a need for much substance.

In the case of `CC[C@H](C)[C@@H]1NC(=O)[C@H](C)NC(=O)CNC(=O)[C@H](CO)NC(=O)[C@H]([C@@H](C)CC)NC(=O)[C@@H]2CSSC[C@@H]3NC(=O)[C@H](C(C)C)NC(=O)[C@H](CCCCN)NC(=O)[C@H](CO)NC(=O)[C@H](CCCCN)NC(=O)[C@@H]4CSSC[C@H](NC(=O)[C@H](CO)NC(=O)[C@H](CCC(=O)O)NC(=O)CNC(=O)[C@H](CSSC[C@H](NC(=O)CNC1=O)C(=O)N[C@@H](CO)C(=O)N4)NC(=O)[C@@H]1CCCN1C(=O)[C@H]([C@@H](C)CC)NC(=O)CNC(=O)[C@H](CC(N)=O)NC(=O)[C@H](CCCNC(=N)N)NC(=O)[C@H](Cc1ccc(O)cc1)NC3=O)C(=O)N[C@@H](C(C)C)C(=O)N[C@@H](Cc1c[nH]c3ccccc13)C(=O)N[C@@H]([C@@H](C)CC)C(=O)N1CCC[C@H]1C(=O)N2` [viba 11] (HELM PEPTIDE1{A.I.G.C.S.C.K.S.K.V.C.Y.R.N.G.I.P.C.G.E.S.C.V.W.I.P.C.I.S.G}$PEPTIDE1,PEPTIDE1,4:R3-18:R3|PEPTIDE1,PEPTIDE1,6:R3-22:R3|PEPTIDE1,PEPTIDE1,11:R3-27:R3|PEPTIDE1,PEPTIDE1,1:R1-30:R2$$$V2.0), the MIC in experiment [1] was 10.8 µM (≈ 33.6 µg/mL); in experiment [2], 5.4 µM (≈ 16.8 µg/mL); in [3], more than 21.6 µM; in experiment [4], more than 21.6 µM; in [5] it was more than 21.6 µM. Further, the entries for the “membrane integrity (PI red fluorescence)” value in experiment [6] (1 MIC) and in experiment [6] (4 MIC) were “caused damage to the membrane integrity” and “majority of the cell membranes were ruptured”, respectively. Also, the IC50 in experiment [7] is 285 ± 10 nM; in [8], 1700 ± 50 nM; in [9], 195 ± 90 nM; in [10] it was 724 ± 170 nM; in [11], 1609 ± 10 nM.
